Tests used:
Assay type in all cases: cell-based, murine and human
Conditions in all cases: 20-24 hours
[1] = target: T1, PPAR-alpha ligand binding domain fused to GAL4 DNA binding domain (UniProt Q07869); test: Transient transfection transactivation assay in CV-1 cells, PPAR-alpha (GAL4 chimera, luciferase reporter)
T1 sequence (Q07869 1-468): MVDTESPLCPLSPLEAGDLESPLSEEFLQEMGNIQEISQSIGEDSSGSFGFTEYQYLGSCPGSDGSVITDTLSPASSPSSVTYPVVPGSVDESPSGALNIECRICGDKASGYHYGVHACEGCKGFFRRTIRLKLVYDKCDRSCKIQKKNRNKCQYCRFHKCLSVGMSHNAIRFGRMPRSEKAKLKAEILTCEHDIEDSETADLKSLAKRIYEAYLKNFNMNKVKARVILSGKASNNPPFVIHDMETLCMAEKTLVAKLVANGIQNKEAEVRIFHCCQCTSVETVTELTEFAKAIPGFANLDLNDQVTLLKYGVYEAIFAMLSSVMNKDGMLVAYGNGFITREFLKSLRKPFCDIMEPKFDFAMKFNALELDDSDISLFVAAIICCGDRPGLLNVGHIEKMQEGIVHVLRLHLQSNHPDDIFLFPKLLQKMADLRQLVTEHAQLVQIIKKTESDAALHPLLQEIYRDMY
Source text: (§1) Compounds may be screened for functional potency in transient transfection assays in CV-1 cells for their ability to activate the PPAR subtypes (transactivation assay). A previously established chimeric receptor system was utilized to allow comparison of the relative transcriptional activity of the receptor subtypes on the same synthetic response element and to prevent endogenous receptor activation from complicating the interpretation of results. See, for example, Lehmann, J. M.; Moore, L. B.; Smith-Oliver, T. A; Wilkinson, W. O.; Willson, T. M.; Kliewer, S. A., An antidiabetic thiazolidinedione is a high affinity ligand for peroxisome proliferator-activated receptor […], J. Biol. Chem., 1995, 270, 12953-6. The ligand binding domains for murine and human PPAR-alpha, PPAR-gamma, and PPAR-delta are each fused to the yeast transcription factor GAL4 DNA binding domain. CV-1 cells were transiently transfected with expression vectors for the respective PPAR chimera along with a reporter construct containing four or five copies of the GAL4 DNA binding site driving expression of luciferase. After 8-16 h, the cells are replated into multi-well assay plates and the media is exchanged to phenol-red free DME medium supplemented with 5% delipidated calf serum. 4 hours after replating, cells were treated with either compounds or 1% DMSO for 20-24 hours. Luciferase activity was then assayed with Britelite (Perkin Elmer) following the manufacturer's protocol and measured with either the Perkin Elmer Viewlux or Molecular Devices Acquest (see, for example, Kliewer, S. A., et. al. Cell 1995, 83, 813-819). Rosiglitazone is used as a positive control in the PPARγ assay. Wy-14643 and GW7647 are used as positive controls in the PPARα assay. GW501516 is used as the positive control in the PPARδ assay.

[2] = target: T2, PPAR-gamma ligand binding domain fused to GAL4 DNA binding domain (UniProt P37231); test: Transient transfection transactivation assay in CV-1 cells, PPAR-gamma (GAL4 chimera, luciferase reporter)
T2 sequence (P37231 1-505): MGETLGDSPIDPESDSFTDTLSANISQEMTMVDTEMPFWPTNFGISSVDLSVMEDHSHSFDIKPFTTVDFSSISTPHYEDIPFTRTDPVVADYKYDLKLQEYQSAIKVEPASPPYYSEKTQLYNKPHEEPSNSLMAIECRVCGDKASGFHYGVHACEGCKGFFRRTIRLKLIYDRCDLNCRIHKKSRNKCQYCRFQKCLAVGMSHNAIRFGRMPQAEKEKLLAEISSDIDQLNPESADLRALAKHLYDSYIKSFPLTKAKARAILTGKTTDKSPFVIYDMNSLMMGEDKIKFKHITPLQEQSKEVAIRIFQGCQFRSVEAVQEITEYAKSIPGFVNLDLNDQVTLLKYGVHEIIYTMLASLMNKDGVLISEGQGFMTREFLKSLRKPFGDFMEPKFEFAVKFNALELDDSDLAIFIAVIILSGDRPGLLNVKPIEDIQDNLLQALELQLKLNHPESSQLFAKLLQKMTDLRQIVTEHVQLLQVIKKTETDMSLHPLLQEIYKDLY
Source text: as §1

[3] = target: T3, PPAR-delta ligand binding domain fused to GAL4 DNA binding domain (UniProt Q03181); test: Transient transfection transactivation assay in CV-1 cells, PPAR-delta (GAL4 chimera, luciferase reporter)
T3 sequence (Q03181 1-441): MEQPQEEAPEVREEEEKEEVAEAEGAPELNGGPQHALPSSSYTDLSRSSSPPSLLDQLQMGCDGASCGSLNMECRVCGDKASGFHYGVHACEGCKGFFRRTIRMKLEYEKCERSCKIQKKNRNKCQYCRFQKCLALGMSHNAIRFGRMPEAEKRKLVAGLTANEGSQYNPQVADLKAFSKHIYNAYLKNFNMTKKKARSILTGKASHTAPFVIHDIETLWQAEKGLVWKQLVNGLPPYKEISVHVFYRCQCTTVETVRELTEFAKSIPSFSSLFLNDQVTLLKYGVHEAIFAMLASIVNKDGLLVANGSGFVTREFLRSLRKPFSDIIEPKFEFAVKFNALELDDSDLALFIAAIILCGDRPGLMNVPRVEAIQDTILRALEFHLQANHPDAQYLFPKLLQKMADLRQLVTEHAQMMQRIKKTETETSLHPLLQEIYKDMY
Source text: as §1

SMILES | EC50 [1] [µM] | EC50 [2] [µM] | EC50 [3] [µM]
C[C@@H]1CN(Cc2cccc(OC(F)(F)F)c2)C[C@H](C)N1S(=O)(=O)c1cccc2c1CC(C(=O)O)C2 (stereo partly drawn) [Example 3, 4-[cis-2,6-Dimethyl-4-(3-(trifluoromethoxy)benzyl)piperazine-1-sulfonyl]-2,3-dihydro-1H-indene-2 carboxylic acid] | > 100 | 5 to 100 | < 5
C[C@@H]1CN(C(=O)Cc2ccc(C(F)(F)F)cc2)C[C@H](C)N1S(=O)(=O)c1cccc2c1CC(C(=O)O)C2 (stereo partly drawn) [Example 13, 4-(cis-2,6-Dimethyl-4-(2-(4-(trifluoromethyl)phenyl)acetyl)piperazin-1-ylsulfonyl)-2,3-dihydro-1H-indene-2-carboxylic acid] | > 100 | > 100 | 5 to 100
C[C@@H]1CN(CCCc2ccc(OC(F)(F)F)cc2)C[C@H](C)N1S(=O)(=O)c1cccc2c1CC(C(=O)O)C2 (stereo partly drawn) [Example 17, 4-(cis-2,6-dimethyl-4-(3-(4-(trifluoromethoxy)phenyl)propyl)piperazin-1-ylsulfonyl)-2,3-dihydro-1H-indene-2-carboxylic acid] | > 100 | 5 to 100 | < 5
O=C(O)C1Cc2cccc(S(=O)(=O)N3CCN(S(=O)(=O)c4ccc(OC(F)(F)F)cc4)CC3)c2C1 (stereo not drawn) [Example 10, 4-(4-(4-(Trifluoromethoxy)phenylsulfonyl)piperazin-1-ylsulfonyl)-2,3-dihydro-1H-indene-2-carboxylic acid] | > 100 | 5 to 100 | 5 to 100
C[C@@H]1CN(CC(c2ccc(Cl)cc2)c2ccc(Cl)cc2)C[C@H](C)N1S(=O)(=O)c1cccc2c1CC(C(=O)O)C2 (stereo partly drawn) [Example 28, 4-(4-(2,2bis(4-Chlorophenyl)ethyl)-(cis)-2,6-dimethylpiperazin-1-ylsulfonyl)-2,3-dihydro-1H-indene-2-carboxylic acid] | > 100 | > 100 | > 100
O=C(O)C1Cc2cccc(S(=O)(=O)N3CCN(CCc4ccc(OC(F)(F)F)cc4)CC3)c2C1 (stereo not drawn) [Example 15, 4-(4-(4-(Trifluoromethoxy)phenethyl)piperazin-1-ylsulfonyl)-2,3-dihydro-1H-indene-2-carboxylic acid] | 5 to 100 | 5 to 100 | < 5
C[C@@H]1CN(CCc2ccc(C(F)(F)F)cc2)C[C@H](C)N1S(=O)(=O)c1cccc2c1CC(C(=O)O)C2 (mixture of isomers) [Example 14A, 4-(cis-2,6-Dimethyl-4-(4-(trifluoromethyl)phenethyl)piperazin-1-ylsulfonyl)-2,3-dihydro-1H-indene-2-carboxylic acid] | > 100 | > 100 | < 5
C[C@@H]1CN(Cc2ccc(SC(F)(F)F)cc2)C[C@H](C)N1S(=O)(=O)c1cccc2c1CC(C(=O)O)C2 (stereo partly drawn) [Example 6, 4-(cis-2,6-Dimethyl-4-(4-(trifluoromethylthio)benzyl)piperazin-1-ylsulfonyl)-2,3-dihydro-1H-indene-2-carboxylic acid] | 5 to 100 | 5 to 100 | < 5
C[C@@H]1CN(S(=O)(=O)c2ccc(OC(F)(F)F)cc2)C[C@H](C)N1S(=O)(=O)c1cccc2c1CC(C(=O)O)C2 (stereo partly drawn) [Example 11, 4-(cis-2,6-Dimethyl-4-(4-(trifluoromethoxy)phenylsulfonyl)piperazin-1-ylsulfonyl)-2,3-dihydro-1H-indene-2-carboxylic acid] | > 100 | 5 to 100 | < 5
O=C(O)C1Cc2cccc(S(=O)(=O)N3CCN(CCc4ccc(C(F)(F)F)cc4)CC3)c2C1 (stereo not drawn) [Example 21, 4-(4-(4-(trifluoromethyl)phenethyl)piperazin-1-ylsulfonyl)-2,3-dihydro-1H-indene-2-carboxylic acid] | 5 to 100 | 5 to 100 | < 5
C[C@@H]1CN(CCc2ccc(Cl)cc2)C[C@H](C)N1S(=O)(=O)c1cccc2c1CC(C(=O)O)C2 (stereo partly drawn) [Example 24, 4-(4-(4-chlorophenethyl)-(cis)-2,6-dimethylpiperazin-1-ylsulfonyl)-2,3-dihydro-1H-indene-2-carboxylic acid] | > 100 | > 100 | < 5
